Source: ChEMBL document CHEMBL1146762, “Structure-activity relationships of trans-cinnamic acid derivatives on alpha-glucosidase inhibition” (Bioorg Med Chem Lett, 2004)

Assay: Inhibition of alpha-glucosidase activity
Design: species or system Saccharomyces cerevisiae

| IC50 [µM] | Compound |
| --- | --- |
| 390 | O=C(O)/C=C/c1ccc(Cl)cc1 |
| 580 | COc1cccc(/C=C/C(=O)O)c1 |
| > 5000 | CCCCOc1ccc(/C=C/C(=O)O)cc1 |
| > 5000 | O=C(O)/C=C/c1ccc(OCc2ccccc2)cc1 |
| 440 | O=C(O)/C=C/c1ccc(Oc2ccccc2)cc1 |
| > 5000 | O=C(O)/C=C/c1ccc(Br)cc1 |
| 1270 | O=C(O)/C=C/c1cccc(O)c1 |
| > 5000 | CCCCCCOc1ccc(/C=C/C(=O)O)cc1 |
| > 5000 | O=C(O)/C=C/c1ccc([N+](=O)[O-])cc1 |
| 270 | O=C(O)/C=C/c1ccc(F)cc1 |
| 50 | CCOC(=O)/C=C/c1ccc(OC)cc1 [4-METHOXY ETHYL CINNAMATE] |
| 40 | COc1ccc(/C=C/C(=O)O)cc1 [4-METHOXYCINNAMIC ACID] |
| > 5000 | O=C(O)/C=C/c1ccccc1 [CINNAMIC ACID] |
| 200 | O=C(O)/C=C/c1ccc(O)cc1 [COUMARIC ACID] |
| 4340 | COc1ccccc1/C=C/C(=O)O [COUMARINIC ACID METHYL ETHER] |
| 5600 | OC[C@H]1NC[C@H](O)[C@@H](O)[C@@H]1O [DUVOGLUSTAT] |
| > 5000 | CCOC(=O)/C=C/c1ccccc1 [ETHYL CINNAMATE] |
| > 5000 | O=C(O)/C=C/c1ccccc1O [O-COUMARIC ACID] |
